In patent US11261186B2, “Biaryl derivative as GPR120 agonist” (LG CHEM, LTD., priority 2014, dated 2022) one finds EC50 data, which are given here for 38 compounds.

In the test the target is T1, hGPR120 (Homo sapiens, UniProt Q5NUL3).
T1 construct: expressed in transfected cells; host or cells: CHO-K1
T1 sequence (Q5NUL3 1-361): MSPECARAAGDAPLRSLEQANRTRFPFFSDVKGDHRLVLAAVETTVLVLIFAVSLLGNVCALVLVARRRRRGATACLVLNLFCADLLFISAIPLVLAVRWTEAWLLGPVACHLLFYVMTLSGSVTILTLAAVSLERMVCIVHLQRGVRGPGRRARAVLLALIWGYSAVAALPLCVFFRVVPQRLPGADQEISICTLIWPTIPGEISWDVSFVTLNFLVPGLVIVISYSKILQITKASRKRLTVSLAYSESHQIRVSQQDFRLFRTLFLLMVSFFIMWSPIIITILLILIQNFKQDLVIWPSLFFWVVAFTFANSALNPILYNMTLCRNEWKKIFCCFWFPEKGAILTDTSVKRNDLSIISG
Kind of test: Measurement of Activity of GPR120 Agonist (Cell-Based Assay), Calcium 5 dye fluorescence. As to conditions: CHO-K1 cells expressing Ga16 and hGPR120. In a few lines: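 Agonist-evoked calcium signal, expressed as percent relative to DMSO-only wells, read at 485/525 nm after serial-dilution addition (0.5% DMSO final). Cells were hGPR120/Gα16 CHO-K1, seeded 18 h earlier and dye-loaded for 1 h at 37°C.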

As for `CCCOc1cccc(-c2cc(F)c(N3CCC(CC(=O)O)CC3)c(F)c2)c1OCCC` [Example 458, 2-[1-[4-(2,3-dipropoxyphenyl)-2,6-difluoro-phenyl]-4-piperidyl]acetic acid], the EC50 was 200 to 2000 nM.

Turning to `COc1ccc(-c2cc(F)c(OCCCC(=O)O)c(F)c2)nc1OCC1CC1` [Example 459, 4-[4-[6-(cyclopropylmethoxy)-5-methoxy-2-pyridyl]-2,6-difluoro-phenoxy]butanoic acid], the EC50 was under 200 nM.

As to `CCCOc1cccc(-c2cc(F)c(N(C)CCCC(=O)O)c(F)c2)c1OCCC` [Example 460, 4-[4-(2,3-dipropoxyphenyl)-2,6-difluoro-N-methyl-anilino]butanoic acid], the concentration for a half-maximal effect (EC50) was 200 to 2000 nM.

Turning to `COc1ccc(-c2cc(F)c(N(C)CCCC(=O)O)c(F)c2)nc1OCC1CC1` [Example 461, 4-[4-[6-(cyclopropylmethoxy)-5-methoxy-2-pyridyl]-2,6-difluoro-N-methyl-anilino]butanoic acid], the EC50 lay within 200 to 2000 nM.

In the case of `COc1ccc(-c2cc(F)c(N3CCC(CC(=O)O)CC3)c(F)c2)nc1OCC1CC1` [Example 462, 2-[1-[4-[6-(cyclopropylmethoxy)-5-methoxy-2-pyridyl]-2,6-difluoro-phenyl]-4-piperidyl]acetic acid], the EC50 lay in the range of 200 to 2000 nM.

`O=C(O)CCCOc1c(F)cc(-n2ccc3ccc(Cl)cc32)cc1F` [Example 463, 4-[4-(6-chloroindol-1-yl)-2,6-difluoro-phenoxy]butanoic acid]: the EC50 was under 200 nM.

Regarding `COc1ccc(-c2ccc(C(F)(F)CCCC(=O)O)cc2)nc1OC1CCC1` [Example 464, 5-[4-[6-(cyclobutoxy)-5-methoxy-2-pyridyl]phenyl]-5,5-difluoro-pentanoic acid], the EC50 is under 200 nM.

Consider `O=C(O)CCCOc1c(F)cc(-n2ccc3cc(F)ccc32)cc1F` [Example 465, 4-[2,6-difluoro-4-(5-fluoroindol-1-yl)phenoxy]butanoic acid], for which the EC50 was under 200 nM.

For the compound `CN(CCCC(=O)O)c1c(F)cc(-c2cccc(NCC3CC3)c2)cc1F` [Example 466, 4-[4-[3-(cyclopropylmethylamino)phenyl]-2,6-difluoro-N-methyl-anilino]butanoic acid], the 50% effective concentration (EC50) is under 200 nM.

As for `CN(CCCC(=O)O)c1c(F)cc(-c2cccc(N3CCCC3)n2)cc1F` [Example 467, 4-[2,6-difluoro-N-methyl-4-(6-pyrrolidin-1-yl-2-pyridyl)anilino]butanoic acid], the EC50 is 200 to 2000 nM.

As to `COc1ccc2c(ccn2-c2cc(F)c(OCCCC(=O)O)c(F)c2)c1` [Example 468, 4-[2,6-difluoro-4-(5-methoxyindol-1-yl)phenoxy]butanoic acid], the EC50 was under 200 nM.

As for `N#Cc1ccc2c(ccn2-c2cc(F)c(OCCCC(=O)O)c(F)c2)c1` [Example 469, 4-[4-(5-cyanoindol-1-yl)-2,6-difluoro-phenoxy]butanoic acid], the 50% effective concentration (EC50) was 2000 to 20000 nM.

Turning to `CN(CCCC(=O)O)c1c(F)cc(-c2occc2COCC2CC2)cc1F` [Example 470, 4-[4-[3-(cyclopropylmethoxymethyl)-2-furyl]-2,6-difluoro-N-methyl-anilino]butanoic acid], the EC50 is 200 to 2000 nM.

On to `O=C(O)CCCOc1c(F)cc(-n2ccc3c(F)cccc32)cc1F` [Example 471, 4-[2,6-difluoro-4-(4-fluoroindol-1-yl)phenoxy]butanoic acid], for which the EC50 is under 200 nM.

In the case of `O=C(O)CCCOc1c(F)cc(-n2ccc3cccc(Cl)c32)cc1F` [Example 472, 4-[4-(7-chloroindol-1-yl)-2,6-difluoro-phenoxy]butanoic acid], the EC50 is under 200 nM.

For the compound `CN(CCCC(=O)O)c1c(F)cc(-c2ccc(COCC3CC3)o2)cc1F` [Example 473, 4-[4-[5-(cyclopropylmethoxymethyl)-2-furyl]-2,6-difluoro-N-methyl-anilino]butanoic acid], the EC50 lay in the range of 200 to 2000 nM.

As to `O=C(O)CCCOc1c(F)cc(-n2ccc3ccc(OCC4CC4)cc32)cc1F` [Example 474, 4-[4-[6-(cyclopropylmethoxy)indol-1-yl]-2,6-difluoro-phenoxy]butanoic acid], the concentration for a half-maximal effect (EC50) was under 200 nM.

In the case of `CN(CCCC(=O)O)c1c(F)cc(-n2ccc3cccc(Cl)c32)cc1F` [Example 475, 4-[4-(7-chloroindol-1-yl)-2,6-difluoro-N-methyl-anilino]butanoic acid], the EC50 is under 200 nM.

With `O=C(O)CCCOc1c(F)cc(-n2ccc3ccc(OC4CCC4)cc32)cc1F` [Example 476, 4-[4-[6-(cyclobutoxy)indol-1-yl]-2,6-difluoro-phenoxy]butanoic acid], the 50% effective concentration (EC50) is under 200 nM.

Regarding `O=C(O)CCCOc1c(F)cc(-n2ccc3cc(OC4CCC4)ccc32)cc1F` [Example 477, 4-[4-[5-(cyclobutoxy)indol-1-yl]-2,6-difluoro-phenoxy]butanoic acid], the EC50 was in the range of 200 to 2000 nM.

As for `COc1cccc2c1ccn2-c1cc(F)c(OCCCC(=O)O)c(F)c1` [Example 478, 4-[2,6-difluoro-4-(4-methoxyindol-1-yl)phenoxy]butanoic acid], the EC50 lay in the range of 200 to 2000 nM.

Turning to `COc1cccc2ccn(-c3cc(F)c(OCCCC(=O)O)c(F)c3)c12` [Example 479, 4-[2,6-difluoro-4-(7-methoxyindol-1-yl)phenoxy]butanoic acid], the concentration giving a half-maximal response (EC50) is under 200 nM.

For the compound `COCc1ccc2c(cnn2-c2cc(F)c(OCCCC(=O)O)c(F)c2)c1` [Example 480, 4-[2,6-difluoro-4-[5-(methoxymethyl)indazol-1-yl]phenoxy]butanoic acid], the EC50 was in the range of 2000 to 20000 nM.

With `O=C(O)CC1CCN(c2c(F)cc(-n3ccc4cccc(Cl)c43)cc2F)CC1` [Example 481, 2-[1-[4-(7-chloroindol-1-yl)-2,6-difluoro-phenyl]-4-piperidyl]acetic acid], the EC50 fell in the range of 2000 to 20000 nM.

As for `O=C(O)CCCOc1c(F)cc(-n2ncc3ccc(OC4CCC4)cc32)cc1F` [Example 482, 4-[4-[6-(cyclobutoxy)indazol-1-yl]-2,6-difluoro-phenoxy]butanoic acid], the concentration giving a half-maximal response (EC50) was under 200 nM.

Consider `O=C(O)CCCOc1c(F)cc(-n2ncc3ccc(OC4CCC4)cc32)cc1Cl` [Example 483, 4-[2-chloro-4-[6-(cyclobutoxy)indazol-1-yl]-6-fluoro-phenoxy]butanoic acid], for which the concentration giving a half-maximal response (EC50) was under 200 nM.

As for `Cc1cc(OC2CCC2)nc(-c2cc(F)c(N(C)CCCC(=O)O)c(F)c2)n1` [Example 484, 4-[4-[4-(cyclobutoxy)-6-methyl-pyrimidin-2-yl]-2,6-difluoro-N-methyl-anilino]butanoic acid], the EC50 was under 200 nM.

For `CN(CCCC(=O)O)c1c(F)cc(-c2nccc(OC3CCC3)n2)cc1F` [Example 485, 4-[4-[4-(cyclobutoxy)pyrimidin-2-yl]-2,6-difluoro-N-methyl-anilino]butanoic acid], the concentration giving a half-maximal response (EC50) was under 200 nM.

As to `CN(CCCC(=O)O)c1c(F)cc(-c2csc(OC3CCC3)n2)cc1F` [Example 486, 4-[4-[2-(cyclobutoxy)thiazol-4-yl]-2,6-difluoro-N-methyl-anilino]butanoic acid], the 50% effective concentration (EC50) was under 200 nM.

As for `O=C(O)CC1CCN(c2c(F)cc(-n3ncc4ccc(OC5CCC5)cc43)cc2F)CC1` [Example 487, 2-[1-[4-[6-(cyclobutoxy)indazol-1-yl]-2,6-difluoro-phenyl]-4-piperidyl]acetic acid], the EC50 lay within 200 to 2000 nM.

Take `CN(CCCC(=O)O)c1c(F)cc(-c2cncc(OC3CCC3)n2)cc1F` [Example 488, 4-[4-[6-(cyclobutoxy)pyrazin-2-yl]-2,6-difluoro-N-methyl-anilino]butanoic acid]: the 50% effective concentration (EC50) was under 200 nM.

Take `Cc1cc(OCC2CC2)nc(-c2cc(F)c(N(C)CCCC(=O)O)c(F)c2)n1` [Example 489, 4-[4-[4-(cyclopropylmethoxy)-6-methyl-pyrimidin-2-yl]-2,6-difluoro-N-methyl-anilino]butanoic acid]: the half-maximal effective concentration (EC50) was under 200 nM.

Turning to `CN(CCCC(=O)O)c1c(F)cc(-c2nccc(OCC3CC3)n2)cc1F` [Example 490, 4-[4-[4-(cyclopropylmethoxy)pyrimidin-2-yl]-2,6-difluoro-N-methyl-anilino]butanoic acid], the EC50 was under 200 nM.

Turning to `CN(CCCC(=O)O)c1c(F)cc(-c2cncc(OCC3CC3)n2)cc1F` [Example 491, 4-[4-[6-(cyclopropylmethoxy)pyrazin-2-yl]-2,6-difluoro-N-methyl-anilino]butanoic acid], the EC50 was under 200 nM.

With `CN(CCCC(=O)O)c1c(F)cc(-n2ncc3ccc(OC4CCC4)cc32)cc1F` [Example 492, 4-[4-[6-(cyclobutoxy)indazol-1-yl]-2,6-difluoro-N-methyl-anilino]butanoic acid], the EC50 is under 200 nM.

As for `CN(CCCC(=O)O)c1c(F)cc(-c2cccc(OCC3CC3)n2)cc1F` [Example 493, 4-[4-[6-(cyclopropylmethoxy)-2-pyridyl]-2,6-difluoro-N-methyl-anilino]butanoic acid], the EC50 was under 200 nM.

Regarding `O=C(O)CC1CCN(c2c(F)cc(-n3ncc4ccc(OC5CCC5)cc43)cc2F)C1` (centres unmarked) [Example 494, 2-[1-[4-[6-(cyclobutoxy)indazol-1-yl]-2,6-difluoro-phenyl]pyrrolidin-3-yl]acetic acid], the EC50 lay within 200 to 2000 nM.

On to `CCCOc1cncc(-c2cc(F)c(N3CCC(CC(=O)O)C3)c(F)c2)n1` (centres unmarked) [Example 495, 2-{1-[2,6-difluoro-4-(6-propoxy-pyrazin-2-yl)phenyl]pyrrolidin-3-yl}acetic acid], for which the half-maximal effective concentration (EC50) was under 200 nM.
